{
  "source": "patent US20230134859A1",
  "about": "“METHOD FOR SCREENING FOR, METHOD FOR PRODUCING, AND METHOD FOR DESIGNING DRUG ACTIVE INGREDIENTS” (SKY PHARMA CO., LTD., priority 2020, published 2023)",
  "key": {"[1]": {"system": "cardiomyocytes", "assay": "Test Example 8: enhancement of myocardium in zebrafish embryo (nkx2.5 in situ hybridization, blood cells pumped per heartbeat)", "assay_type": "in vivo", "conditions": "test compounds = Compounds 1 to 7", "protocol": "Zebrafish embryos at 10 hours after fertilization were held with the dorsal side of the head up on a coffin (plastic plate with V-shaped grooves for holding), and a glass capillary was inserted into a midline between head and ear vesicles (heart primordium). Nitrogen gas pressure (15 picosiemens) was applied for 15 to 45 milliseconds and injected into the gap just below the neural tube. The test compound concentration was 100 μM/E3, and 0.025% (final concentration) phenol red was mixed as a tracer of the injection solution. The injection was performed in pulses with a foot pedal and continued until phenol red was distributed in an elliptical shape with a major axis of 200 μm from the insertion point. After injection, embryos were cultured at 28.5° C. for 14 hours in E3. After chorions were removed with tweezers, the embryos were fixed with 4% paraformaldehyde/PBS at normal temperature for 1 hour, and in situ hybridization was performed overnight at 65° C. in the presence of a DIG probe of nk×2.5 as a cardiac muscle marker according to a conventional method. After washing, cardiomyocytes were stained by an alkali phosphatase color reaction using an anti-DIG antibody. The stained embryos were washed with PBS, embedded in 75% glycerin/PBS and localized, and then microscopically photographed with incident light. The number of tested individuals was unified with n=80 for each compound.\nIn addition, the zebrafish embryos injected with the test compound by the above-described method were cultured at 28.5° C. until 48 hours after fertilization, embedded in 3% methyl cellulose/E3, and a moving image was photographed. The number of blood cells pumped in one heartbeat in time-lapse was counted n=15 and compared to Ringer injected individuals."}, "[2]": {"system": "sox1α, sox2, sox3, and her6", "assay": "Test Example 1: quantitative PCR of neural stem cell markers in brains of treated zebrafish", "assay_type": "in vivo", "conditions": "brain of treated zebrafish individuals; ΔΔCt; vs control", "protocol": "Moreover, the brains of the treated zebrafish individuals were dissected and washed with sterile distilled water, and then crushed by pipetting or 1 ml syringe suction discharge with 18 G to 24 G needles in 500 μl of Sepasol-RNA I Super G (Nacalai Tesque). A deproteinization operation was conducted once by equivalent phenol/chloroform treatment and once by chloroform treatment, and the supernatant was subjected to RNA purification using an RNA purification column (RNeasy Plus Mini Kit, Qiagen). The elute was reverse-transcribed using a mixed primer of random hexamer and oligo-dT (ReverTra Ace qPCR Kit, TOYOBO) at 37° C. for 15 minutes and 98° C. for 5 minutes, and quantitative PCR of expression levels of sox1α, sox2, sox3, and her6, which are markers of neural stem cells, was performed. Quantitative PCR was performed with SYBER Green Realtime PCR Master Mix (TOYOBO). For the PCR reaction, ABI PRISM 7700 or LightCycler from Roche Diagnostics K.K. was used. Quantification was performed in 3 wells per identical sample (n=3). The obtained data was comparatively quantified by a ΔΔCt method using a normalizer (β-actin, GAPDH, 18S, or the like). In order to confirm that the quantitative reaction was reliable, it was confirmed that the amplification product was in a band by agarose electrophoresis."}},
  "data": [
    {"smiles": "CNS(=O)(=O)c1ccccc1Nc1nc(Nc2ccc(N3CCN(C)CC3)cc2OC)ncc1Cl", "note": "[Compound 7, 2-[[5-Chloro-2-[2-methoxy-4-(4-methylpiperazin-1-yl)anilino]pyrimidin-4-yl]amino]-N-methylbenzenesulfonamide]", "values": [
      {"measurement": "amount of cardiomyocytes (in situ hybridization, nkx2.5)", "setting": "[1]; 100 μM injected at heart primordium 10 h after fertilization, vs control, n=80", "result": "increase in the amount of cardiomyocytes was observed"},
      {"measurement": "stroke volume of blood cells (moving image of the heartbeat)", "setting": "[1]; 100 μM, 48 h after fertilization", "result": "remarkably improved"},
      {"measurement": "number of blood cells pumped in one heartbeat", "setting": "[1]; 100 μM, 48 h after fertilization, vs control, n=15", "result": "remarkable increase in the number of blood cells pumped in one heartbeat"},
      {"measurement": "expression levels of sox1α, sox2, sox3, and her6 (quantitative PCR)", "setting": "[2]", "result": "significant increase in expression levels"}
    ]}
  ]
}
